Earlier results on two molecules are cited in patent US20090162444A1, “RALOXIFENE COMPOSITION” (priority 2007, published 2009).

Assay in series [1]: not given
This is another data set of the same source.

For series [2] the following is noted: oral administration.

Structures can show the parent of a compound that is named as a salt.

As to `O=C(c1ccc(OCCN2CCCCC2)cc1)c1c(-c2ccc(O)cc2)sc2cc(O)ccc12` [Raloxifene hydrochloride, raloxifene hydrochloride], the “solubility in gastric and intestinal fluid” value is “very slightly soluble”. In addition, in series [1], the solubility in water was 627 µg/mL.
In the case of `O=C(c1ccc(OCCN2CCCCC2)cc1)c1c(-c2ccc(O)cc2)sc2cc(O)ccc12` [Raloxifene, (6-hydroxy-2-(4-hydroxy-phenyl)benzo[b]thien-3-yl)-(4-(2-(1-piperidinyl)ethoxy)phenyl)methanone], the absolute bioavailability entry in series [2] is given as “about 2%”.
